# According to ChEMBL document CHEMBL1151844, “Flavonoid glucosides from the hairy roots of Catharanthus roseus” (J Nat Prod, 2009):
# Calls of active or inactive are those of the source. The calls are words filed in the database; no cut-off is given here.
# Tests used:
# [1] = test system: THP-1; test: Antiinflammatory activity against human THP1 cells assessed as inhibition of LPS-induced MMP9 expression pretreated 2 hrs before LPS challenge measured after 24 hrs by SDS-PAGE; format: functional, cell-based
# [2] = test system: A549; test: Cytotoxicity against human A549 cells; format: functional, cell-based
# [3] = test system: Ca-Ski; test: Cytotoxicity against human CaSki cells by; format: functional, cell-based
# [4] = test system: DLD2; test: Cytotoxicity against human DLD2 cells; format: functional, cell-based
# [5] = test system: MCF7; test: Cytotoxicity against human MCF7 cells; format: functional, cell-based
# [6] = test system: THP-1; test: Cytotoxicity against LPS-stimulated human THP1 cells assessed as cell viability at 26.9 uM pretreated 2 hrs before LPS-challenge measured after 24 hrs by MTS assay; format: cell-based; details: thp-1, 24 h
# [7] = test system: THP-1; test: Antiinflammatory activity against human THP1 cells assessed as inhibition of LPS-induced TNFalpha release at 6.7 to 26.9 uM pretreated 2 hrs before LPS challenge measured after 24 hrs by ELISA; format: functional, cell-based
# [8] = test system: THP-1; test: Cytotoxicity against LPS-stimulated human THP1 cells assessed as cell viability at 29.0 uM pretreated 2 hrs before LPS-challenge measured after 24 hrs by MTS assay; format: cell-based; details: thp-1, 24 h
# [9] = test system: THP-1; test: Antiinflammatory activity against human THP1 cells assessed as inhibition of LPS-induced TNFalpha release at 7.3 to 29.0 uM pretreated 2 hrs before LPS challenge measured after 24 hrs by ELISA; format: functional, cell-based
# [10] = test system: THP-1; test: Cytotoxicity against LPS-stimulated human THP1 cells assessed as cell viability at 29.4 uM pretreated 2 hrs before LPS-challenge measured after 24 hrs by MTS assay; format: cell-based; details: thp-1, 24 h
# [11] = test system: THP-1; test: Antiinflammatory activity against human THP1 cells assessed as inhibition of LPS-induced TNFalpha release at 7.3 to 29.4 uM pretreated 2 hrs before LPS challenge measured after 24 hrs by ELISA; format: functional, cell-based
# [12] = test system: THP-1; test: Antiinflammatory activity against human THP1 cells assessed as inhibition of LPS-induced TNFalpha release at 6.5 to 25.9 uM pretreated 2 hrs before LPS challenge measured after 24 hrs by ELISA; format: functional, cell-based
# [13] = test system: THP-1; test: Cytotoxicity against LPS-stimulated human THP1 cells assessed as cell viability at 25.9 uM pretreated 2 hrs before LPS-challenge measured after 24 hrs by MTS assay; format: cell-based; details: thp-1, 24 h
Compound,Activity [1],Activity [2],Activity [3],Activity [4],Activity [5],Activity [6],Activity [7],Activity [8],Activity [9],Activity [10],Activity [11],Activity [12],Activity [13]
CCC(C)C(CCC(C)CCCC(C)CCCC(C)C)O[C@H]1[C@H](O)[C@@H](O)[C@H](Oc2c(-c3ccc(OC)cc3)oc3cc(O)cc(O)c3c2=O)O[C@@H]1CO (stereo partly drawn),Dose-dependent effect,Not toxic,Not toxic,Not toxic,Not toxic,Non-toxic,Active,–,–,–,–,–,–
COc1ccc([C@H]2CC(=O)c3ccc(O[C@@H]4O[C@H](COC(=O)CC(C)CCCC(CO)CCCC(C)C)[C@@H](O)[C@H](O)[C@H]4O)cc3O2)cc1OC (stereo partly drawn),Dose-dependent effect,Not toxic,Not toxic,Not toxic,Not toxic,–,–,Non-toxic,Active,–,–,–,–
C=C(CCC=C(C)C)CC/C=C(\C)CC(=O)OC[C@H]1O[C@@H](Oc2ccc3c(c2)O[C@@H](c2ccc(OC)c(OC)c2)CC3=O)[C@H](O)[C@@H](O)[C@@H]1O,Dose-dependent effect,Not toxic,Not toxic,Not toxic,Not toxic,–,–,–,–,Non-toxic,Active,–,–
C/C=C(\C)C(CCC(C)CCCC(C)CCCC(C)C)O[C@H]1[C@H](O)[C@@H](O)[C@H](Oc2cc(O)c3c(=O)c(O)c(-c4ccc(OC)c(OC)c4)oc3c2)O[C@@H]1CO (stereo partly drawn),Dose-dependent effect,Not toxic,Not toxic,Not toxic,Not toxic,–,–,–,–,–,–,Active,Non-toxic
